{"source": "patent US10662218B2", "about": "“Analogs of celastrol” (ERX Pharmaceuticals, Inc., priority 2015, dated 2020)", "key": {"physchem": {"test": "physchem", "details": "pH 7.4, aqueous buffer, kinetic from dmso stock", "method": "• Test concentration: 100 μM (1% of DMSO) • Test systems: PBS (pH 7.4) • Incubation condition: shaken (1000 rpm) for 1 h at room temperature • Sample size: Duplicates (n=2) • Bioanalytical method: LC-MS/MS"}, "[1]": {"system": "C57BL/6 Diet Induced Obese (DIO) mice", "test": "Oral (P.O.) administration study in DIO mice: in vivo activity, body weights", "set-up": "species or system mouse", "details": "for change in vivo at 2 mg/kg: Mus musculus, po, difference of group mean, read-out: Body weight, %-Diff", "description": "The purpose of this study was to assess test articles in the Diet Induced Obese (DIO) mouse.\nMale C57BL/6 Diet Induced Obese (DIO) mice were received from Taconic. Animals were acclimated to housing conditions for at least 1 week prior to vehicle acclimation dosing. Animals were acclimated to oral gavage dosing with vehicle once daily for Days 11 through 14 of the predose phase.\nAt initiation of dosing, animals were 21 to 22 weeks old, and their body weights ranged from 29.8 to 40.1 g.\nDose formulations were administered by oral gavage once daily for 10 days at a dose volume of 2 mL/kg. Doses were based on the most recently recorded scheduled body weight.\nBody weights were recorded daily on Days 11 through 14 of the predose phase. Body weights were collected for all animals daily during the dosing phase prior to dosing.\nDescriptive statistics (n, mean, standard error of the mean, standard deviation) were completed. Additionally, one-way analysis of variance followed by Dunnett's post-hoc test were performed on body weight (cumulative body weight change), glucose (glucose percent change), and food consumption (cumulative food consumption). Area under the curve (for body weight, cumulative body weight change, daily body weight change, and food consumption) was computed for treatment groups. An appropriate comparison test, such as one-way analysis of variance and Dunnett's, was performed on the group means for the area under the curve computations. Any additional statistical analysis and interpretation of the results were the responsibility of the sponsor."}, "[2]": {"system": "C57BL/6 Diet Induced Obese (DIO) mice", "test": "Oral (P.O.) administration study in DIO mice: animal fate (mortality) and clinical observations", "details": "individual male animals, 2 mg/kg, phase of fate Dosing, phase week 2, phase day 11", "method": "Male C57BL/6 DIO mice were assigned to 12 groups, and doses of 2 mg/kg Celastrol (ERX1000-4), ERX1006, ERX1007, ERX1037, ERX1060, ERX1077, ERX1107, ERX1149, ERX1168, ERX1177, and Pristimerin were administered to Groups 2 through 12, respectively. Animals were dosed via oral gavage once daily for 10 days at a volume of 2 mL/kg. The vehicle control article was 1% methyl cellulose (400 cps) in citric acid and phosphate buffer.\nParameters assessed included mortality, clinical observations, body weights and food consumption and blood glucose evaluations.\nAll animals were anesthetized via carbon dioxide, sacrificed, and discarded without further evaluation on Day 11."}}, "note": "“And” between values parts separate entries of the source, which are not always exact repeats. Equal values may be shown once. Read-outs that look alike come from different tables or passages of the source."}
{"smiles": "CC(=O)OC1=C(C)C2=CC=C3[C@@](C)(CC[C@@]4(C)[C@@H]5C[C@](C)(C(=O)O)CC[C@]5(C)CC[C@]34C)C2=CC1=O", "note": "[ERX1007]", "values": [{"measurement": "solubility", "setting": "physchem; Solubility (μM)", "value": 48.8, "unit": "µM"}, {"measurement": "solubility", "setting": "physchem; Solubility (μM) Mean", "value": 48.8, "unit": "µM"}, {"measurement": "Body weight %-Diff", "setting": "[1]; 2 mg/kg oral gavage once daily, dosing phase Day 1", "value": 1, "unit": "%"}, {"measurement": "Body weight, Mean", "setting": "[1]; 2 mg/kg oral gavage once daily, dosing phase Day 1, N 5", "value": 34.5, "unit": "g"}, {"measurement": "Body weight %-Diff", "setting": "[1]; 2 mg/kg oral gavage once daily, dosing phase Day 2", "value": "−1", "unit": "%"}, {"measurement": "Body weight, Mean", "setting": "[1]; 2 mg/kg oral gavage once daily, dosing phase Day 2, N 5", "value": 34.1, "unit": "g"}, {"measurement": "Body weight %-Diff", "setting": "[1]; 2 mg/kg oral gavage once daily, dosing phase Day 3", "value": "−2", "unit": "%"}, {"measurement": "Body weight, Mean", "setting": "[1]; 2 mg/kg oral gavage once daily, dosing phase Day 3, N 5", "value": 33.3, "unit": "g"}, {"measurement": "Body weight %-Diff", "setting": "[1]; 2 mg/kg oral gavage once daily, dosing phase Day 4", "value": 0, "unit": "%"}, {"measurement": "Body weight, Mean", "setting": "[1]; 2 mg/kg oral gavage once daily, dosing phase Day 4, N 5", "value": 33.3, "unit": "g"}, {"measurement": "Body weight %-Diff", "setting": "[1]; 2 mg/kg oral gavage once daily, dosing phase Day 5", "value": "−2", "unit": "%"}, {"measurement": "Body weight, Mean", "setting": "[1]; 2 mg/kg oral gavage once daily, dosing phase Day 5, N 5", "value": 33.1, "unit": "g"}, {"measurement": "Body weight %-Diff", "setting": "[1]; 2 mg/kg oral gavage once daily, dosing phase Day 6", "value": "−3", "unit": "%"}, {"measurement": "Body weight, Mean", "setting": "[1]; 2 mg/kg oral gavage once daily, dosing phase Day 6, N 5", "value": 32.4, "unit": "g"}, {"measurement": "Body weight, Mean", "setting": "[1]; Day 7, DSNG phase, 2 mg/kg, male, N=5", "value": 32.4, "unit": "g"}, {"measurement": "Body weight, Mean", "setting": "[1]; Day 8, DSNG phase, 2 mg/kg, male, N=5", "value": 32.7, "unit": "g"}, {"measurement": "Body weight, Mean", "setting": "[1]; Day 9, DSNG phase, 2 mg/kg, male, N=5", "value": 32.3, "unit": "g"}, {"measurement": "Body weight, Mean", "setting": "[1]; Day 10, DSNG phase, 2 mg/kg, male, N=5", "value": 32.1, "unit": "g"}, {"measurement": "Body weight, Mean", "setting": "[1]; Day 11, DSNG phase, 2 mg/kg, male, N=5", "value": 32.3, "unit": "g"}, {"measurement": "change in vivo at 2 mg/kg", "setting": "[1]; 168 h, Day 7, DSNG phase, 2 mg/kg, male", "value": -3, "unit": "%"}, {"measurement": "change in vivo at 2 mg/kg", "setting": "[1]; 192 h, Day 8, DSNG phase, 2 mg/kg, male", "value": -3, "unit": "%"}, {"measurement": "change in vivo at 2 mg/kg", "setting": "[1]; 216 h, Day 9, DSNG phase, 2 mg/kg, male", "value": -3, "unit": "%"}, {"measurement": "change in vivo at 2 mg/kg", "setting": "[1]; 240 h, Day 10, DSNG phase, 2 mg/kg, male", "value": -4, "unit": "%"}, {"measurement": "change in vivo at 2 mg/kg", "setting": "[1]; 264 h, Day 11, DSNG phase, 2 mg/kg, male", "value": -5, "unit": "%"}, {"measurement": "Individual Body Weight, PRED 11", "setting": "[1]; individual male DIO mouse of the 2 mg/kg group, pre-dose phase day 11 (baseline)", "value": "36.8 g and 39.8 g and 35.7 g and 32.5 g and 37.6 g"}, {"measurement": "Individual Body Weight, PRED 12", "setting": "[1]; individual male DIO mouse of the 2 mg/kg group, pre-dose phase day 12 (baseline)", "value": "35.2 g and 38.9 g and 35.7 g and 31.7 g and 36.9 g"}, {"measurement": "Individual Body Weight, PRED 13", "setting": "[1]; individual male DIO mouse of the 2 mg/kg group, pre-dose phase day 13 (baseline)", "value": "34.1 g and 38.7 g and 35.3 g and 32.3 g and 36.5 g"}, {"measurement": "Individual Body Weight, PRED 14", "setting": "[1]; individual male DIO mouse of the 2 mg/kg group, pre-dose phase day 14 (baseline)", "value": "34.2 g and 38.6 g and 35.2 g and 32.7 g and 37.3 g"}, {"measurement": "Individual Body Weight, DSNG 1", "setting": "[1]; individual male DIO mouse, 2 mg/kg, dosing phase day 1, 2 mg/kg", "value": "33.8 g and 36.3 g and 34.7 g and 31.4 g and 36.2 g"}, {"measurement": "Individual Body Weight, DSNG 2", "setting": "[1]; individual male DIO mouse, 2 mg/kg, dosing phase day 2, 2 mg/kg", "value": "33.2 g and 36.4 g and 34.2 g and 30.3 g and 36.2 g"}, {"measurement": "Individual Animal Fate: Fate Status", "setting": "[2]", "value": "Scheduled Sacrifice"}]}
